Laboratory results: patent US20020010186A1, “Dihydropyrimidines and uses thereof” (Synaptic Pharmaceutical Corporation, priority 1996, published 2002)
Where a name gives a salt, the structure may show the parent alone.

What was measured:
[1] = target: T1, human α1A receptor (Homo sapiens, UniProt P35348); experiment: Radioligand binding assay ([3H]prazosin) at cloned human α1A adrenergic receptor; settings: membranes of LM(tk-) cells, [3H]prazosin 0.5 nM; for Ki: read-out: hα1a pKi (converted)
T1 sequence (P35348 1-466): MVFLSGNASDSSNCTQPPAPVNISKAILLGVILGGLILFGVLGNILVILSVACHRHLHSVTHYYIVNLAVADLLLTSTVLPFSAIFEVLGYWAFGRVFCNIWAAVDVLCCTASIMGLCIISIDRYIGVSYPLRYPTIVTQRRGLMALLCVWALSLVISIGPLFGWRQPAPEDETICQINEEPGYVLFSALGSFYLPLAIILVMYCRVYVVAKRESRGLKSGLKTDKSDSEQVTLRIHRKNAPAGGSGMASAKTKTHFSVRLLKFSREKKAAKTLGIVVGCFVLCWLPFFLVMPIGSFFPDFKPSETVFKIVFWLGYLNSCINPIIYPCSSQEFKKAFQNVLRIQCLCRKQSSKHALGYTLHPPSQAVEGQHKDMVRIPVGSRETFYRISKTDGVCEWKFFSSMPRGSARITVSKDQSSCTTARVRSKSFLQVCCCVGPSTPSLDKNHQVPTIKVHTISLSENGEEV
Procedure: (§1) These cell lines were prepared by transfecting the cloned cDNA or cloned genomic DNA or constructs containing both genomic DNA and cDNA encoding the human u-adrenergic receptors as follows:
(§2) The construct involved ligating three partial overlapping fragments: a 5′ 0.6 kb HincII genomic clone, a central 1.8 EcoRI hippocampal cDNA clone, and a 3′ 0.6Kb PstI genomic clone. The hippocampal cDNA fragment overlaps with the 5′ and 3′ genomic clones so that the HincII and PstI sites at the 5′ and 3′ ends of the cDNA clone, respectively, were utilized for ligation. This full-length clone was cloned into the KpnI site of the expression vector, using the 5′ and 3′ KpnI sites of the fragment, derived from vector (i.e., pBluescript) and 3′-untranslated sequences, respectively. Stable cell lines were selected as described above. […] Radioligand Binding Assays: Transfected cells from culture flasks were scraped into 5 ml of 5 mM Tris-HCl, 5 mM EDTA, pH 7.5, and lysed by sonication. The cell lysates were centrifuged at 1000 rpm for 5 min at 4° C., and the supernatant was centrifuged at 30,000×g for 20 min at 4° C. The pellet was suspended in 50 mM Tris-HCl, 1 mM MgCl2, and 0.1% ascorbic acid at pH 7.5. Binding of the al antagonist [^3H]prazosin (0.5 nM, specific activity 76.2 Ci/mmol) to membrane preparations of LM(tk-) cells was done in a final volume of 0.25 ml and incubated at 37° C. for 20 min. Nonspecific binding was determined in the presence of 10 μM phentolamine. The reaction was stopped by filtration through GF/B filters using a cell harvester.

[2] = target: T2, human α1D receptor (Homo sapiens, UniProt P25100); experiment: Radioligand binding assay ([3H]prazosin) at cloned human α1D adrenergic receptor; settings: membranes of LM(tk-) cells, [3H]prazosin 0.5 nM; for Ki: read-out: hα1d pKi (converted)
T2 sequence (P25100 1-572): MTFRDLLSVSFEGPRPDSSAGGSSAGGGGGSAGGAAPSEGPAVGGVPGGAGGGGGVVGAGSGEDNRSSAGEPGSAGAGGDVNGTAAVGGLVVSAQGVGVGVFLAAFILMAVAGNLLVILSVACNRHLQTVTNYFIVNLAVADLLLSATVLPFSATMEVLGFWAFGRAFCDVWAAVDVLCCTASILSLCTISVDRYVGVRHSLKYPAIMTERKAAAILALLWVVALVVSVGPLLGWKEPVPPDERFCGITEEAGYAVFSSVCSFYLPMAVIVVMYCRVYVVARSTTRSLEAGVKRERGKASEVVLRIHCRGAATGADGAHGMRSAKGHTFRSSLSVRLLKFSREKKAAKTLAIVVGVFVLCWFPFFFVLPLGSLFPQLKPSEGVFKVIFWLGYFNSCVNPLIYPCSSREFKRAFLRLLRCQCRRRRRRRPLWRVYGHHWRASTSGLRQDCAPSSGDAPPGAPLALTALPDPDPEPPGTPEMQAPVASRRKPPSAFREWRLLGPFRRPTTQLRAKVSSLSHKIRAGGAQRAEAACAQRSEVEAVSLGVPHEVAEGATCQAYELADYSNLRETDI
Procedure: as §1
The cells were grown, in a controlled environment ([…]., 5% CO2), as monolayers in Dulbecco's modified Eagle's Medium (GIBCO, Grand Island, N.Y.) containing 25 mM glucose and supplemented with 10% bovine calf serum, 100 units/ml penicillin g, and 100 μg/ml streptomycin sulfate.
as §2

[3] = target: T3, human α1B receptor (Homo sapiens, UniProt P35368); experiment: Radioligand binding assay ([3H]prazosin) at cloned human α1B adrenergic receptor; settings: membranes of LM(tk-) cells, [3H]prazosin 0.5 nM; for Ki: read-out: hα1b pKi (converted)
T3 sequence (P35368 1-520): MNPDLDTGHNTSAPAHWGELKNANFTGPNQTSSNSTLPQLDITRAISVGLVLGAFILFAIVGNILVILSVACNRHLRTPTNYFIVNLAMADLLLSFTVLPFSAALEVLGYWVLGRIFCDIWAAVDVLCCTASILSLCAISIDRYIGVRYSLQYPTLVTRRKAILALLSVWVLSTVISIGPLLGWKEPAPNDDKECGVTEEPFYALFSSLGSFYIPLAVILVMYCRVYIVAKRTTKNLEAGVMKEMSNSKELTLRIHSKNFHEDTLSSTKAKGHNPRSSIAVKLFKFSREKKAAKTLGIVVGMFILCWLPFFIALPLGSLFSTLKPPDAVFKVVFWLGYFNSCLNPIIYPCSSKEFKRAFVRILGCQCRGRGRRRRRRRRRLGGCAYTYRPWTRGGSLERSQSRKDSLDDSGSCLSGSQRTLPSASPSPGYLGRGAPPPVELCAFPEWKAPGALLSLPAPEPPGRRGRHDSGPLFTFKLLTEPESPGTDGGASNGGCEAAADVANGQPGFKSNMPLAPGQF
Procedure: as §1
The construct involved ligating the full-length containing EcoRI brainstem cDNA fragment from λ ZapII into the expression vector. Stable cell lines were selected as described above.
as §2

CCC1=C(C(N)=O)C(c2ccc(F)c(F)c2)N(C(=O)NCCCN2CCC(C(=O)OC)(c3ccccc3)CC2)C(=O)N1 (single isomer, unassigned; (+)) [Example 14, (+)-5-Carboxamido-6-(3,4-difluorophenyl)-4-ethyl-1-{N-[3-(4-methoxycarbonyl-4-phenylpiperidin-1-yl)propyl]}carboxamido-2-oxo-1,2,3,6-tetrhydropyrimidine]
hα1a pKi [1]: 9.68
hα1d pKi [2]: 6.46
hα1b pKi [3]: 6.59

COCC1=NC(C)=C(C(=O)OC)C(c2ccc(F)c(F)c2)N1CCCCCN1CCC(c2ccc(C)cc2)(c2ccccc2C)CC1 (centres unmarked) (as salt: HCl)
melting point: 137 to 140 °C

COCC1=C(C(=O)OC)C(c2ccc(F)c(F)c2)N(C(=O)NCCCN2CCC(c3ccccc3)(c3ccco3)CC2)C(=O)N1 (centres unmarked)
melting point: 153 to 155 °C

COC(=O)N1C(C)=NC(C)=C(C(=O)NCCCN2CCC(C(=O)OC)(c3ccccc3)CC2)C1c1ccc(F)c(F)c1 (centres unmarked)
melting point: 55 to 57 °C

COC(=O)C1=C(C)N=C(C)N(CCCCCNCCCc2ccccc2)C1c1ccc(F)c(F)c1 (centres unmarked) (as salt: HCl) [Example 55, 6-(3,4-Difluorophenyl)-1,6-dihydro-5-methoxycarbonyl-2,4-dimethyl-1-(5-(3-phenylpropylamino)pentyl)-pyrimidine]
melting point: 95 to 97 °C

COC(=O)C1=C(C)NC(=O)N(C(=O)NCCCN2CCC(c3ccccn3)CC2)C1c1ccc2nonc2c1 (centres unmarked) [Example 16, 6-(3,4-Benzofurazan-5-yl)-5-methoxycarbonyl-4-methyl-2-oxo-1-{N-[4-(2-pyridyl)-piperidin-1-yl]propyl}carboxamido-1,2,3,6-tetrahydropyrimidine Dihydrochloride]
Ki [1]: 0.288 nM
Ki [2]: 575 nM
Ki [3]: 427 nM

COC(=O)C1=C(C)NC(=O)N(C(=O)NCCCN2CCC(c3ccccn3)CC2)C1c1ccc(F)c(F)c1 (centres unmarked) (as salt: hydrochloride) [Example 15, 6-(3,4-Difluorophenyl)-5-methoxycarbonyl-4-methyl-2-oxo-1-{N-[4-(2-pyridyl)-piperidine-1-yl]propyl}carboxamido-1,2,3,6-tetrahydropyrimidine Dihydrochloride]
melting point: 170 to 174 °C

COCC1=C(C(=O)OC)C(c2ccc(F)c(F)c2)N(C(=O)NCCCN2CCC(c3ccccc3)(c3cccs3)CC2)C(=O)N1 (centres unmarked)
melting point: 157 to 159 °C

COC(=O)C1=C(C)N=C(C)N(CCCC(O)CN2CCC(c3ccccn3)CC2)C1c1ccc(F)c(F)c1 (single isomer, unassigned; (+)) (as salt: HCl) [Example 56, (+)-6-(3,4-Difluorophenyl)-1,6-dihydro-1-(4-hydroxy-5-(4-(2-pyridyl)piperidin-1-yl)pentyl)-5-methoxycarbonyl-2,4-dimethylpyrimidine]
melting point: 163 to 165 °C

COC(=O)C1=C(C)N=C(C)N(CCCCCN2CCC(C(=O)OC)(c3ccccc3)CC2)C1c1ccc(F)c(F)c1 (centres unmarked) (as salt: HCl) [Example 17, 6-(3,4-Difluorophenyl)-1,6-dihydro-5-methoxycarbonyl-1-(5-(4-methoxycarbonyl-4-phenylpiperidin-1-yl)-pentyl)-2,4-dimethylpyrimidine]
melting point: 170 to 176 °C

COC(=O)C1=C(C)N=C(C)N(CCCCCN2CCC(C(=O)OC)(c3ccccc3)CC2)C1c1ccc(F)c(F)c1 (centres unmarked) [Example 17, 6-(3,4-Difluorophenyl)-1,6-dihydro-5-methoxycarbonyl-1-(5-(4-methoxycarbonyl-4-phenylpiperidin-1-yl)-pentyl)-2,4-dimethylpyrimidine]
hα1d pKi [2]: 6.17
hα1b pKi [3]: 6.32

COC(=O)C1=C(C)NC(=O)N(C(=O)NCCCN2CCC(c3ccccn3)CC2)C1c1ccc(F)c(F)c1 (centres unmarked) [Example 15, 6-(3,4-Difluorophenyl)-5-methoxycarbonyl-4-methyl-2-oxo-1-{N-[4-(2-pyridyl)-piperidine-1-yl]propyl}carboxamido-1,2,3,6-tetrahydropyrimidine Dihydrochloride]
Ki [1]: 0.389 nM
Ki [2]: 977 nM
Ki [3]: 468 nM

COCN1C(C)=NC(C)=C(C(=O)NCCCN2CCC(C(=O)OC)(c3ccccc3)CC2)C1c1ccc(F)c(F)c1 (centres unmarked)
melting point: 53 to 57 °C
